Laboratory results from ChEMBL document CHEMBL1165959, “Novel tricyclic Delta(2)-isoxazoline and 3-oxo-2-methyl-isoxazolidine derivatives: synthesis and binding affinity at neuronal nicotinic acetylcholine receptor subtypes” (Bioorg Med Chem, 2010).

Legend:
[1] = biological target: Neuronal acetylcholine receptor; alpha4/beta2 (Rattus norvegicus, UniProt P09483+P12390); assay: Displacement of (+/-)-[3H]epibatidine from alpha4beta2 nAChR in rat cortical membrane; assay type: cell membranes
[2] = biological target: Neuronal acetylcholine receptor subunit alpha-7 (Rattus norvegicus, UniProt Q05941); assay: Displacement of [125I]alpha-Bungarotoxin from alpha7 nAChR in rat cortical membrane; assay type: cell membranes
Chain of Neuronal acetylcholine receptor subunit alpha-7 (Q05941 whole entry): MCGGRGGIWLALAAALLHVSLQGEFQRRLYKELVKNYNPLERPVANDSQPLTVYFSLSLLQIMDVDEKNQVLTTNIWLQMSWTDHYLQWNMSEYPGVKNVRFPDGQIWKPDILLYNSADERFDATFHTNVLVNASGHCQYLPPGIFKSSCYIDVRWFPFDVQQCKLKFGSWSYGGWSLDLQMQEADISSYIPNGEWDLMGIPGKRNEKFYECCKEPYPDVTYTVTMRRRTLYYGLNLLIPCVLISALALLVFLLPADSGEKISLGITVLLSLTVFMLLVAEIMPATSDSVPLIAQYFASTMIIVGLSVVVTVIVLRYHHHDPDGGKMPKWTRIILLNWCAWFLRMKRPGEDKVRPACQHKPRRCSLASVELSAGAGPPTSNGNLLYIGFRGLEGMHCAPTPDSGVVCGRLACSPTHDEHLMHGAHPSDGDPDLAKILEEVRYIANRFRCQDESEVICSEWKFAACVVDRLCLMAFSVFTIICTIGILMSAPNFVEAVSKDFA

Chain of Neuronal acetylcholine receptor; alpha4/beta2 (P09483 whole entry): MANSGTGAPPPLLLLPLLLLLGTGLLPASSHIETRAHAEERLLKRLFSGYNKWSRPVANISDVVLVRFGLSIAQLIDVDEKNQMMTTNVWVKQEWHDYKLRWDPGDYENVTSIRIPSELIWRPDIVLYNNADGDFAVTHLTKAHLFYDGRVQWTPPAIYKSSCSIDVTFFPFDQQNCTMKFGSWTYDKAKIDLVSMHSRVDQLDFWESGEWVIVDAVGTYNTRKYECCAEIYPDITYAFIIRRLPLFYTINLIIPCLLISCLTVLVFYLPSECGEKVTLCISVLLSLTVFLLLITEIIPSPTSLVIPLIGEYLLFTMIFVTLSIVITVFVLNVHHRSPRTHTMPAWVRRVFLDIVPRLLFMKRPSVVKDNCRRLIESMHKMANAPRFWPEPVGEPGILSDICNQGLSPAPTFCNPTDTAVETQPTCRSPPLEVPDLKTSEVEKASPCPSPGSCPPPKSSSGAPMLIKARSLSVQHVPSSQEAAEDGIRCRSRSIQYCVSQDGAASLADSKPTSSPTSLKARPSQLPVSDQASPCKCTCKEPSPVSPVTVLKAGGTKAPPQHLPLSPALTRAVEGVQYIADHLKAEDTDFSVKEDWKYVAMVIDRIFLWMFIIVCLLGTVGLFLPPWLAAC
Chain of Neuronal acetylcholine receptor; alpha4/beta2 (P12390 whole entry): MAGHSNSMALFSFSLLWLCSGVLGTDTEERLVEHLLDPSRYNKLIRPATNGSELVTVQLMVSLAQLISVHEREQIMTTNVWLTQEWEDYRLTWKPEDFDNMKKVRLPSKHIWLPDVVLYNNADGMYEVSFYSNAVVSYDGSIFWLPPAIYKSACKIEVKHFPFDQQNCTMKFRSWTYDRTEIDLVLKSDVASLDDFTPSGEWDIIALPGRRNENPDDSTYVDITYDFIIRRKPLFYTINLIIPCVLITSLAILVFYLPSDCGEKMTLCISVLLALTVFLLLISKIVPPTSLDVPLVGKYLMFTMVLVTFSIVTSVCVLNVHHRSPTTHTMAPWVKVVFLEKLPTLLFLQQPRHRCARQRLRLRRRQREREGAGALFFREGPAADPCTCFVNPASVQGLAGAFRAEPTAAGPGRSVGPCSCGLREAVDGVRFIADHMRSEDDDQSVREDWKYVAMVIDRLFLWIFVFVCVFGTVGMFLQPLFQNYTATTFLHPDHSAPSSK

**Q.** Which Ki [1] does the source give for `BrC1=NOC2C3CCC(CC12)N3` (centres undefined) here?
**A.** 0.75 µM

**Q.** And the Ki [2]?
**A.** 20 µM

**Q.** `BrC1=NOC2CC3CNCC(C3)C12` (centres undefined) was tested. Which Ki [1] did it give?
**A.** 0.92 µM

**Q.** And the Ki [2]?
**A.** 28.5 µM

**Q.** `COC1=NOC2CC3CNCC(C3)C12` (centres undefined) was tested. Which Ki [1] did it give?
**A.** 31 µM

**Q.** And the Ki [2]?
**A.** 170 µM

**Q.** Which results are given for `CC(=O)C1=CC[C@H]2CC[C@@H]1N2`?
**A.** Ki [1]: 0.094 µM; Ki [2]: > 10 µM

**Q.** For `O=c1cccc2n1C[C@@H]1CNC[C@H]2C1` [CYTISINICLINE], which Ki [1] is on record?
**A.** 0.0004 µM

**Q.** And the Ki [2]?
**A.** 0.3 µM

**Q.** Which Ki [1] does the source give for `CN1OC2C3CNCC(C3)CC2C1=O` (centres undefined) here?
**A.** 1.8 µM

**Q.** And the Ki [2]?
**A.** 9.5 µM

**Q.** Which Ki [1] does the source give for `COC1=NOC2CC3CCC(N3)C12` (centres undefined) here?
**A.** 53 µM

**Q.** What about the Ki [2] of the same compound?
**A.** 68 µM

**Q.** How did the Ki [1] turn out when `CN1OC2CC3CCC(N3)C2C1=O` (centres undefined) was run?
**A.** 50 µM

**Q.** And the Ki [2]?
**A.** > 100 µM

**Q.** `CN1OC2C3CCC(CC2C1=O)N3` (centres undefined) was tested. Which Ki [1] did it give?
**A.** 100 µM

**Q.** And the Ki [2]?
**A.** > 100 µM

**Q.** How did the Ki [1] turn out when `CN1OC2CC3CNCC(C3)C2C1=O` (centres undefined) was run?
**A.** 79 µM

**Q.** What about the Ki [2] of the same compound?
**A.** > 100 µM

**Q.** `BrC1=NOC2CC3CCC(N3)C12` (centres undefined) was tested. Which Ki [1] did it give?
**A.** 260 µM

**Q.** What about the Ki [2] of the same compound?
**A.** 109 µM

**Q.** `COC1=NOC2C3CCC(CC12)N3` (centres undefined) was tested. Which Ki [1] did it give?
**A.** 4.5 µM

**Q.** And the Ki [2]?
**A.** 28.2 µM
